Experimental findings from ChEMBL document CHEMBL1154065, “Discovery of novel P3 sulfonamide-capped inhibitors of HCV NS3 protease. Inhibitors with improved cellular potencies” (Bioorg Med Chem, 2009) are described below.

Data set [1] is described as follows: Inhibition of HCV NS3 protease by continuous spectrophotometric assay. More on the design: species or system Hepacivirus hominis.
The test system of data set [2] is Hepatitis C virus. The experiment in a line: Antiviral activity against Hepatitis C virus infected in human hepatoma cell by replicon assay. In kind it is functional, Hepacivirus hominis.
The next data set has as its system Rattus norvegicus. The experiment in a line: AUC (0 to 6 hrs) in po dosed rat. The conditions noted are these: in vivo. More on the design: time < 6 hr, route oral. In kind it is ADME, organism-based, Plasma.
Data set [3] is described as follows: AUC (0 to 6 hrs) in rat at 10 mg/kg, po. In kind it is ADME, organism-based. Set-up: time < 6 hr, dose 10 mg/kg, route oral. The note with it: plasma.
The nature of data set [4]: AUC (0 to 6 hrs) in monkey at 3 mg/kg, po. The data set is classed as ADME, organism-based, Macaca mulatta. More on the design: time < 6 hr, dose 3 mg/kg, route oral. The conditions noted are these: rhesus monkey, plasma.
In data set [5] the test system is Hepatitis C virus. The experiment in a line: Ratio of boceprevir EC90 to compound EC90 for Hepatitis C virus infected in human hepatoma cell. The data set is classed as functional, Hepacivirus hominis.
The nature of data set [6]: Selectivity for HCV NS3 protease over human neutrophil elastase.

For `CC(C)[C@@H](CNS(C)(=O)=O)NC(=O)N[C@H](C(=O)N1C[C@H]2[C@@H]([C@H]1C(=O)NC(CC1CCC1)C(=O)C(N)=O)C2(C)C)C(C)(C)C` (some centres undefined), in data set [1], the Ki came to 31 nM. Also, in the data set on Hepatitis C virus [2], the EC90 came out at 2000 nM.
For `C=CCNC(=O)C(=O)C(CCC)NC(=O)[C@@H]1[C@@H]2[C@H](CN1C(=O)[C@@H](NC(=O)N[C@H](CN(C)S(=O)(=O)CC)C(C)(C)C)C(C)(C)C)C2(C)C` (some centres undefined), in data set [1], the Ki is 10 nM. Moreover, the 90% effect level in the data set with Hepatitis C virus [2] (EC90) was put at 150 nM. Besides, the AUC in the data set on Rattus norvegicus stood at 0.34 µM·h.
In data set [1], `C=CCNC(=O)C(=O)C(CCCC)NC(=O)[C@@H]1[C@@H]2[C@H](CN1C(=O)[C@@H](NC(=O)N[C@H](CN(C)S(=O)(=O)CC)C(C)(C)C)C1Cc3ccccc3C1)C2(C)C` (some centres undefined) displayed a Ki of 6 nM. The compound also displayed an EC90 in the data set with Hepatitis C virus [2] of 60 nM. The area under the curve AUC(0-t) at 6 h stood at 1.2 µM·h in data set [3] and 0.69 µM·h in data set [4]. Moreover, the Ratio with Hepatitis C virus [5] is on record as 5.
For `CC(C)(C)[C@H](NC(=O)N[C@H](CNS(=O)(=O)c1ccccc1)C(C)(C)C)C(=O)N1C[C@H]2[C@@H]([C@H]1C(=O)NC(CC1CCC1)C(=O)C(N)=O)C2(C)C` (some centres undefined), the Ki in data set [1] worked out at 13 nM.
Regarding `C=CCNC(=O)C(=O)C(CCC)NC(=O)[C@@H]1[C@@H]2[C@H](CN1C(=O)[C@@H](NC(=O)N[C@H](CN(C)S(=O)(=O)c1cccs1)C(C)(C)C)C(C)(C)C)C2(C)C` (some centres undefined), the affinity in data set [1], expressed as Ki, was 10 nM. The EC90 in the data set with Hepatitis C virus [2] stood at 260 nM. Further, the exposure (AUC) in the data set with Rattus norvegicus was found to be 1.38 µM·h.
In data set [1], `CN(C[C@@H](NC(=O)N[C@H](C(=O)N1C[C@H]2[C@@H]([C@H]1C(=O)NC(CC1CCC1)C(=O)C(N)=O)C2(C)C)C(C)(C)C)C(C)(C)C)S(C)(=O)=O` (some centres undefined) had a Ki of 5 nM. Besides, it took 150 nM to reach the 90% level in the data set on Hepatitis C virus [2] (EC90). In addition, the AUC in the data set on Rattus norvegicus was 0.06 µM·h. Besides, the Ratio in the data set on Hepatitis C virus [5] came to 2.
Take `CN(C[C@@H](NC(=O)N[C@H](C(=O)N1C[C@H]2[C@@H]([C@H]1C(=O)NC(CC1CCC1)C(=O)C(N)=O)C2(C)C)C(C)(C)C)C(C)(C)C)S(=O)(=O)c1ccccc1` (some centres undefined): affinity in data set [1] was put at a Ki of 5 nM. Moreover, the EC90 in the data set on Hepatitis C virus [2] turned out to be 75 nM.
For the compound `CC(C)[C@@H](CNS(=O)(=O)c1cccs1)NC(=O)N[C@H](C(=O)N1C[C@H]2[C@@H]([C@H]1C(=O)NC(CC1CCC1)C(=O)C(N)=O)C2(C)C)C(C)(C)C` (some centres undefined), the Ki in data set [1] came to 23 nM. The 90% effect level in the data set with Hepatitis C virus [2] (EC90) was put at 600 nM.
With `C=CCNC(=O)C(=O)C(CCC)NC(=O)[C@@H]1[C@@H]2[C@H](CN1C(=O)[C@@H](NC(=O)N[C@H](CN(C)S(=O)(=O)c1ccccn1)C(C)(C)C)C(C)(C)C)C2(C)C` (some centres undefined), the inhibition constant (Ki) in data set [1] turned out to be 14 nM. For the same compound, the EC90 in the data set with Hepatitis C virus [2] was found to be 180 nM. The compound further displayed an AUC with Rattus norvegicus of 1.02 µM·h.
On to `CC(C)C(CN(C)S(=O)(=O)c1ccccc1)NC(=O)N[C@H](C(=O)N1C[C@H]2[C@@H]([C@H]1C(=O)NC(CC1CCC1)C(=O)C(N)=O)C2(C)C)C(C)(C)C` (single isomer, unassigned), for which the inhibitory constant (Ki) in data set [1] was 8 nM. The compound further registered an EC90 with Hepatitis C virus [2] of 140 nM. Also, in data set [6], the Selectivity ratio was 3100.
In data set [1], `CN(C[C@@H](NC(=O)N[C@H](C(=O)N1C[C@H]2[C@@H]([C@H]1C(=O)NC(CC1CCC1)C(=O)C(N)=O)C2(C)C)C(C)(C)C)C(C)(C)C)S(=O)(=O)C1CC1` (some centres undefined) gave an inhibition constant (Ki) of 5 nM. The same compound yielded an EC90 in the data set on Hepatitis C virus [2] of 90 nM. Further, the AUC in the data set with Rattus norvegicus was 0.09 µM·h.
`C=CCNC(=O)C(=O)C(CCC)NC(=O)[C@@H]1[C@@H]2[C@H](CN1C(=O)[C@@H](NC(=O)N[C@H](CN(C)S(=O)(=O)N(C)C)C(C)(C)C)C1Cc3ccccc3C1)C2(C)C` (some centres undefined) yielded a Ki in data set [1] of 11 nM. It took 100 nM to reach the 90% level in the data set on Hepatitis C virus [2] (EC90).
For the compound `CC(C)C[C@@](C)(CN(C)S(=O)(=O)c1ccccc1)NC(=O)N[C@H](C(=O)N1C[C@H]2[C@@H]([C@H]1C(=O)NC(CC1CCC1)C(=O)C(N)=O)C2(C)C)C(C)(C)C` (some centres undefined), the affinity in data set [1] corresponds to a Ki of 80 nM.
In the case of `CN(CC1(NC(=O)N[C@H](C(=O)N2C[C@H]3[C@@H]([C@H]2C(=O)NC(CC2CCC2)C(=O)C(N)=O)C3(C)C)C(C)(C)C)CCCCC1)S(=O)(=O)c1ccccc1` (some centres undefined), in data set [1], the Ki is 12 nM. Besides, in the data set with Hepatitis C virus [2], it took 400 nM to reach the 90% level (EC90).
For the compound `CCS(=O)(=O)N(C)C[C@@H](NC(=O)N[C@H](C(=O)N1C[C@H]2[C@@H]([C@H]1C(=O)NC(CC1CCC1)C(=O)C(N)=O)C2(C)C)C(C)(C)C)C(C)(C)C` (some centres undefined), the affinity in data set [1], expressed as Ki, was 4 nM. Moreover, the concentration for an effect of 90% (EC90) with Hepatitis C virus [2] is 150 nM.
In the same order, the values of `CC(C)[C@@H](CN(C)S(C)(=O)=O)NC(=O)N[C@H](C(=O)N1C[C@H]2[C@@H]([C@H]1C(=O)NC(CC1CCC1)C(=O)C(N)=O)C2(C)C)C(C)(C)C` (some centres undefined) are 4 nM and 350 nM.
Take `CN(C[C@@H](NC(=O)N[C@H](C(=O)N1C[C@H]2[C@@H]([C@H]1C(=O)NC(CC1CCC1)C(=O)C(N)=O)C2(C)C)C(C)(C)C)C(C)(C)C)S(=O)(=O)c1cccs1` (some centres undefined): in data set [1], the Ki was determined as 4 nM. This compound yielded an EC90 with Hepatitis C virus [2] of 60 nM. In addition, the AUC in the data set with Rattus norvegicus worked out at 0.11 µM·h.
Take `CC(C)[C@H](NC(=O)N[C@H](C(=O)N1C[C@H]2[C@@H]([C@H]1C(=O)NC(CC1CC1)C(=O)C(N)=O)C2(C)C)C(C)(C)C)C(=O)OC(C)(C)C` (some centres undefined): the Ki in data set [1] came to 6 nM. In the data set on Hepatitis C virus [2], it took 200 nM to reach the 90% level (EC90).
In the same order, the values of `CC[C@H](C)[C@@H](CN(C)S(=O)(=O)c1ccccc1)NC(=O)N[C@H](C(=O)N1C[C@H]2[C@@H]([C@H]1C(=O)NC(CC1CCC1)C(=O)C(N)=O)C2(C)C)C(C)(C)C` (some centres undefined) are 13 nM and 250 nM.
In the same order, the values of `C=CCNC(=O)C(=O)C(CCC)NC(=O)[C@@H]1[C@@H]2[C@H](CN1C(=O)[C@@H](NC(=O)N[C@H](CN(C)S(=O)(=O)CC)C(C)(C)C)C1Cc3ccccc3C1)C2(C)C` (some centres undefined) are 6 nM and 100 nM.
For `CC(C)[C@@H](CN(C)S(=O)(=O)c1cccs1)NC(=O)N[C@H](C(=O)N1C[C@H]2[C@@H]([C@H]1C(=O)NC(CC1CCC1)C(=O)C(N)=O)C2(C)C)C(C)(C)C` (some centres undefined), in that order: 12 nM and 100 nM.
In data set [1], `C=CCNC(=O)C(=O)C(CCCC)NC(=O)[C@@H]1[C@@H]2[C@H](CN1C(=O)[C@@H](NC(=O)N[C@H](CN(C)S(=O)(=O)N(C)C)C(C)(C)C)C1CCCCC1)C2(C)C` (some centres undefined) yielded a Ki of 6 nM. In the data set with Hepatitis C virus [2], it took 80 nM to reach the 90% level (EC90). Further, the AUC(0-t) at 6 h in data set [3] turned out to be 1.74 µM·h.
The compound `CC(C)[C@@H](CNS(=O)(=O)c1ccccc1)NC(=O)N[C@H](C(=O)N1C[C@H]2[C@@H]([C@H]1C(=O)NC(CC1CC1)C(=O)C(N)=O)C2(C)C)C(C)(C)C` (some centres undefined) registered a Ki in data set [1] of 10 nM. Besides, in the data set on Hepatitis C virus [2], the 90% effect concentration (EC90) is 550 nM.
For `CC(C)(C)NC(=O)N[C@H](C(=O)N1C[C@H]2[C@@H]([C@H]1C(=O)NC(CC1CCC1)C(=O)C(N)=O)C2(C)C)C(C)(C)C` (some centres undefined) [BOCEPREVIR], the Ki in data set [1] was 14 nM. Further, the EC90 with Hepatitis C virus [2] is 350 nM. Moreover, the Selectivity ratio in data set [6] stood at 2200.
For the compound `CC(C)[C@H](CN(C)S(=O)(=O)c1ccccc1)NC(=O)N[C@H](C(=O)N1C[C@H]2[C@@H]([C@H]1C(=O)NC(CC1CC1)C(=O)C(N)=O)C2(C)C)C(C)(C)C` (some centres undefined), in data set [1], affinity was put at a Ki of 6 nM. The compound further returned an EC90 in the data set with Hepatitis C virus [2] of 130 nM. For the same compound, the Selectivity ratio in data set [6] was 680.
`CC(C)[C@@H](CN(C)S(=O)(=O)c1ccccc1)NC(=O)N[C@H](C(=O)N1C[C@H]2[C@@H]([C@H]1C(=O)NC(CC1CC1)C(=O)C(N)=O)C2(C)C)C(C)(C)C` (some centres undefined): the inhibition constant Ki in data set [1] was 8 nM. In addition, in the data set with Hepatitis C virus [2], the EC90 was 130 nM.
